The test system of one assay is primary astrocytes. In words: A1 astrocyte conversion in primary astrocytes treated with PFF-activated microglia conditioned medium (MCM). The class given is cell-based, mouse. Conditions: astrocytes 24 h with MCM from inhibitor-treated PFF-activated microglia; in words. The protocol:
Primary neuron, microglia and astrocyte cell cultures, and α-synuclein PFE's treatment: NOD2 or RIPK2 knockout mice was obtained from Jackson Laboratories (Bar Harbor, ME, USA). Primary cortical neurons were prepared from embryonic day 15.5 pups and cultured in Neurobasal medium (Gibco) supplemented with B-27, 0.5 mM L-glutamine, penicillin and streptomycin (Invitrogen, Grand Island, NY, USA) on tissue-culture plates coated with poly-L-lysine. The neurons were maintained by changing the medium every 3-4 days. Primary microglial and astrocyte cultures were performed as described previously (PMID: 26157004). Whole brains from mouse pups at postnatal day 1 (P1) were obtained. […] The total protein concentration was determined using Pierce BCA protein assay kit (Thermo Scientific), and 15 or 50 μg ml^-1 of total protein was added to mouse primary neurons for the neuronal cell death assay. […] RNA concentration was measured spectrophotometrically using NanoDrop 2000 ([…]). […] The expression levels of targeted genes were normalized to the expression of β-actin and calculated based on the comparative cycle threshold Ct method (2-ΔΔCt).

The subject of assay [1] is primary microglia activated with α-synuclein PFFs. In words: qPCR of A1 astrocyte inducers (TNFα, IL-1α, C1q) in primary microglia activated with α-synuclein PFFs. The class given is cell-based, mouse. Conditions: inhibitor 10 μM 30 min, then α-synuclein PFFs 1 μg/mL 4 h; in words. The protocol:
α-synuclein purification and α-synuclein PFFs preparation: Recombinant mouse α-synuclein proteins were purified as previously described with an IPTG-independent inducible pRK172 vector system (Nat Protoc. 9(9): 2135-46 (2014)). Endotoxin was depleted by ToxinEraser endotoxin removal kit (Genscript, NJ, USA). α-synuclein PFFs (5 mg ml^−1) was prepared in PBS while stirring with a magnetic stirrer (1,000 rpm at 37° C.). After a week of incubation of the α-synuclein protein, aggregates were diluted to 0.1 mg ml^−1 with PBS and sonicated for 30 s (0.5 s pulse on/off) at 10% amplitude (Branson Digital sonifier, Danbury, CT, USA). α-synuclein PFFs was validated using atomic force microscopy and transmission electron microscopy, and the ability to induce phospho-serine 129 α-synuclein (p-α-synSer129) was confirmed using immunostaining. α-synuclein PFFs was stored at −80° C. until use. […]
Comparative qPCR: The total RNA from cultured cells was extracted with RNA isolation kit (Qiagen, CA) following the instruction provided by the company. RNA concentration was measured spectrophotometrically using NanoDrop 2000 ([…]). […] The expression levels of targeted genes were normalized to the expression of β-actin and calculated based on the comparative cycle threshold Ct method (2-ΔΔCt).
In general terms: Quantitative PCR measures a nucleic acid by following its amplification.

With `CC(C)(C)S(=O)(=O)c1ccc2nccc(Nc3n[nH]c4ccc(F)cc34)c2c1` [GSK583, 6-(tert-butylsulfonyl)-N-(5-fluoro-1H-indazol-3-yl) quinolin-4-amine], the A1 astrocyte conversion result in the assay on primary astrocytes is “significantly suppress”. Besides, in assay [1], the “release of A1 astrocyte inducer (TNFα, IL-1α, C1q) from microglia” value is recorded as “significantly suppress”.
Consider `COc1cc2ncnc(Nc3ccc(F)c(Cl)c3)c2cc1OCCCN1CCOCC1` [Gefitinib], for which, in the assay on primary astrocytes, the A1 astrocyte conversion entry is given as “significantly suppress”. Besides, the “release of A1 astrocyte inducer (TNFα, IL-1α, C1q) from microglia” value in assay [1] was “significantly suppress”.

The values are drawn from US20240398824A1, “Inhibition Of Rip Kinases For Treating Neurodegenerative Disorders” (The Johns Hopkins University, priority 2018, published 2024).
